Source: publication PMC8592419 (PLoS ONE, 2021)
Converted amounts (≈) assume the structure as drawn. Read-outs that look alike come from different tables or passages of the source. One block for each compound: values may come before it. Where a SMILES comes first, the peptide text is derived from it.

Legend:
[1] = test system: M. abscessus clinical isolate MAB01; assay: In vitro susceptibility testing (DST), CLSI broth microdilution; format: cell-based, M. abscessus subsp. abscessus; set-up: key to DST profile, interpretation, Day 3 / DST profile, interpretation, Day 5 / DST profile, interpretation, Day 14: S, susceptible; I, intermediate; R, resistant; conditions: for MIC: Mycobacteroides abscessus
Protocol: (§1) Drug susceptibility testing (DST) was performed according to the Clinical and Laboratory Standards Institute (CLSI) guidelines M24-A2 [42] using the broth microdilution method to determine the minimum inhibitory concentration (MIC). […] Colonies were grown at an adjusted cell density to a 0.5 McFarland standard and further diluted to 5×10^5 CFU/ml. […] These were then incubated at 37°C for 3, 5 and 14 days. The MIC was defined as the concentration in which no visible growth was observed. The results were interpreted according to the guidelines of CLSI. Inducible resistance was inferred by changes in MIC values from being susceptible at day 3 to resistant at day 14.

[2] = test system: M. abscessus clinical isolate MAB03; assay: as above; format: cell-based, M. abscessus subsp. abscessus; set-up: key to DST profile, interpretation, Day 3 / DST profile, interpretation, Day 5 / DST profile, interpretation, Day 14: S, susceptible; I, intermediate; R, resistant; conditions: for MIC: Mycobacteroides abscessus
Protocol: as §1

[3] = test system: M. abscessus clinical isolate MAB05; assay: as above; format: cell-based, M. abscessus subsp. abscessus; set-up: key to DST profile, interpretation, Day 3 / DST profile, interpretation, Day 5 / DST profile, interpretation, Day 14: S, susceptible; I, intermediate; R, resistant; conditions: for MIC: Mycobacteroides abscessus
Protocol: as §1

[4] = test system: M. abscessus clinical isolate MAB06; assay: as above; format: cell-based, M. abscessus subsp. abscessus; set-up: key to DST profile, interpretation, Day 3 / DST profile, interpretation, Day 5 / DST profile, interpretation, Day 14: S, susceptible; I, intermediate; R, resistant; conditions: for MIC: Mycobacteroides abscessus
Protocol: as §1

[5] = test system: M. abscessus clinical isolate MAB08; assay: as above; format: cell-based, M. abscessus subsp. abscessus; set-up: key to DST profile, interpretation, Day 3 / DST profile, interpretation, Day 5 / DST profile, interpretation, Day 14: S, susceptible; I, intermediate; R, resistant; conditions: for MIC: Mycobacteroides abscessus
Protocol: as §1

[6] = test system: M. abscessus clinical isolate MAB11; assay: as above; format: cell-based, M. abscessus subsp. abscessus; set-up: key to DST profile, interpretation, Day 3 / DST profile, interpretation, Day 5 / DST profile, interpretation, Day 14: S, susceptible; I, intermediate; R, resistant; conditions: for MIC: Mycobacteroides abscessus
Protocol: as §1

Mab ATCC19977 strain = format: cell-based, Mycobacterium abscessus
Protocol: (§2) Briefly, serial dilutions of the AMPs were prepared with potassium phosphate buffer (PPB) from the concentration range of 3.125 to 400 μg/ml and then 50 μl of each dilution were added to each 96-well plate. Colonies of the isolate were suspended and then further diluted in Mueller-Hinton broth to obtain a final concentration of 1×10^3 CFU/ml (optimized according to the available AMP stock concentration). Fifty microliters of this inoculum were added to each well of the plates. The plates were incubated for 3 days at 37°C. Plain media and bacterial suspensions without AMPs were used as negative and positive controls. The MIC values were read and recorded. All assays were performed in duplicate and two independent experiments.

[7] = test system: M. abscessus clinical isolate MAB04; assay: In vitro antimicrobial susceptibility of potential AMPs, broth microdilution, 3 days; format: cell-based, M. abscessus subsp. abscessus; conditions: 3 days at 37°C
Protocol: as §2
(§3) For the in vitro antimicrobial susceptibility, the same protocol as described above was used. The culture plates were further incubated up to 3 days at 37°C. The MIC values were read and recorded.

[8] = test system: M. abscessus clinical isolate MAB08; assay: as above; format: cell-based, M. abscessus subsp. abscessus; conditions: 3 days at 37°C
Protocol: as §2, §3

[9] = test system: M. abscessus clinical isolate MAB15; assay: as above; format: cell-based, M. abscessus subsp. massiliense; conditions: 3 days at 37°C
Outline: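 AMPs were serially diluted in potassium phosphate buffer, with dilutions spanning 3.125 to 400 μg/ml, and combined with isolate inoculum in Mueller-Hinton broth at a final 1×10^3 CFU/ml. After 3 days at 37°C, MIC was read. Runs were in duplicate across two independent experiments.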

[10] = test system: human peripheral blood mononuclear cells (PBMCs); assay: PBMC toxicity, trypan blue exclusion assay; format: cell-based; conditions: 1 h at 37°C, mean±SD of duplicates, two independent experiments
Protocol: For the toxicity of the potential AMPs to human peripheral blood mononuclear cells (PBMCs), the trypan blue exclusion assay was used. Fresh human PBMCs were prepared from blood samples of healthy volunteers using the Ficoll density gradient technique. The cells were centrifuged at 1,800 rpm for 20 min at 20°C and washed three times with PBS and adjusted with RPMI-1640 medium into 6.25×10^5 cells/ml. Fifty microliters of PBMC suspension and 50 μl of AMP solutions (6.25–400 μg/ml) were added to the 96-well microtiter plates and incubated for 1 h at 37°C. Then, 20 μl of the samples were mixed with 20 μl of 0.4% (w/v) trypan blue solution (0.81% NaCl and 0.06% (w/v) dibasic potassium phosphate) in microtubes and incubated for 3 min at room temperature. The PBMC suspensions treated with PBS were used as negative controls. PBMCs were counted using a dual-chamber hemocytometer under a light microscope. Viable and non-viable cells were counted under a microscope and the percentage of viable cells was calculated using the following formula: % of viable cells = [1.00 –([…] / Number of total cells)] × 100. All assays were performed in duplicate with two independent experiments.

[11] = test system: clinical isolates of M. abscessus; assay: In vitro susceptibility of potential AMPs, 3 days, summary over isolates; format: cell-based, Mycobacterium abscessus; conditions: isolates MAB01 and MAB03
Protocol: as §2, §3

[12] = 72 h, day 3, read-out: DST profile, MIC value, Day 3
[13] = 120 h, day 5, read-out: DST profile, MIC value, Day 5
[14] = 336 h, day 14, read-out: DST profile, MIC value, Day 14

MIC [1, 12]: 1020 µg/mL (≈ 1370 µM)
MIC [1, 13]: 1020 µg/mL (≈ 1370 µM)
MIC [1, 14]: 1020 µg/mL (≈ 1370 µM)
MIC [2, 12]: 8 µg/mL (≈ 10.7 µM)
MIC [2, 13]: 8 µg/mL (≈ 10.7 µM)
MIC [2, 14]: 8 µg/mL (≈ 10.7 µM)
MIC [3, 12]: 4 µg/mL (≈ 5.35 µM)
MIC [3, 13]: 8 µg/mL (≈ 10.7 µM)
MIC [3, 14]: 16 µg/mL (≈ 21.4 µM)
MIC [4, 12]: 0.5 µg/mL (≈ 0.668 µM)
MIC [4, 13]: 2 µg/mL (≈ 2.67 µM)
MIC [4, 14]: 32 µg/mL (≈ 42.8 µM)
MIC [5, 12]: 1 µg/mL (≈ 1.34 µM)
MIC [5, 13]: 2 µg/mL (≈ 2.67 µM)
MIC [5, 14]: 8 µg/mL (≈ 10.7 µM)
MIC [6, 12]: 0.5 µg/mL (≈ 0.668 µM)
MIC [6, 13]: 16 µg/mL (≈ 21.4 µM)
SMILES: CC[C@H]1OC(=O)[C@H](C)[C@@H](O[C@H]2C[C@@](C)(OC)[C@@H](O)[C@H](C)O2)[C@H](C)[C@@H](O[C@@H]2O[C@H](C)C[C@H](N(C)C)[C@H]2O)[C@](C)(OC)C[C@@H](C)C(=O)[C@H](C)[C@@H](O)[C@]1(C)O [CLA, Clarithromycin]
DST profile, interpretation, Day 3 ([1]; day 3, CLSI interpretation): R
DST profile, interpretation, Day 5 ([1]; day 5, CLSI interpretation): R
DST profile, interpretation, Day 14 ([1]; day 14, CLSI interpretation): R
DST profile, interpretation, Day 3 ([2]; day 3, CLSI interpretation): R
DST profile, interpretation, Day 5 ([2]; day 5, CLSI interpretation): R
DST profile, interpretation, Day 14 ([2]; day 14, CLSI interpretation): R
DST profile, interpretation, Day 3 ([3]; day 3, CLSI interpretation): I
DST profile, interpretation, Day 5 ([3]; day 5, CLSI interpretation): R
DST profile, interpretation, Day 14 ([3]; day 14, CLSI interpretation): R
DST profile, interpretation, Day 3 ([4]; day 3, CLSI interpretation): S
DST profile, interpretation, Day 5 ([4]; day 5, CLSI interpretation): S
DST profile, interpretation, Day 14 ([4]; day 14, CLSI interpretation): R
DST profile, interpretation, Day 3 ([5]; day 3, CLSI interpretation): S
DST profile, interpretation, Day 5 ([5]; day 5, CLSI interpretation): S
DST profile, interpretation, Day 14 ([5]; day 14, CLSI interpretation): R
DST profile, interpretation, Day 3 ([6]; day 3, CLSI interpretation): S
DST profile, interpretation, Day 5 ([6]; day 5, CLSI interpretation): R
DST profile, interpretation, Day 14 ([6]; day 14, CLSI interpretation): R

SMILES: CC[C@H](C)[C@H](NC(=O)[C@H](CCCCN)NC(=O)[C@H](CCCNC(=N)N)NC(=O)CNC(=O)[C@H](CC(C)C)NC(=O)[C@H](CO)NC(=O)[C@H](CCCNC(=N)N)NC(=O)[C@H](CC(C)C)NC(=O)CNC(=O)CN)C(=O)N[C@@H](CC(C)C)C(=O)N[C@@H](CCCNC(=N)N)C(=O)N[C@@H](C)C(=O)N[C@@H](Cc1c[nH]c2ccccc12)C(=O)N[C@@H](CCCCN)C(=O)N[C@@H](CCCCN)C(=O)N[C@@H](Cc1ccc(O)cc1)C(=O)O [S61] (H-GGLRSLGRKILRAWKKY-OH)
MIC values (Mab ATCC19977 strain): 200 µg/mL (≈ 99.9 µM)
Antimicrobial peptides against M. abscessus isolates, MIC value [7]: >400 µg/mL
Antimicrobial peptides against M. abscessus isolates, MIC value [8]: >400 µg/mL
Antimicrobial peptides against M. abscessus isolates, MIC value [9]: >400 µg/mL
Viable cells of PBMCs (% viable cells) ([10]; 6.25 µg/mL): 97.98±1.38%
Viable cells of PBMCs (% viable cells) ([10]; 12.5 µg/mL): 94.40±0.56%
Viable cells of PBMCs (% viable cells) ([10]; 25 µg/mL): 95.35±3.74%
Viable cells of PBMCs (% viable cells) ([10]; 50 µg/mL): 87.35±7.57%
Viable cells of PBMCs (% viable cells) ([10]; 100 µg/mL): 79.70±6.73%
Viable cells of PBMCs (% viable cells) ([10]; 200 µg/mL): 38.76±0.82%
Viable cells of PBMCs (% viable cells) ([10]; 400 µg/mL): 41.40±5.84%
MIC values after 3 days [11]: 3.13 µM (≈ 6.27 µg/mL)

SMILES: CC[C@H](C)[C@H](NC(=O)[C@H](CCCCN)NC(=O)[C@H](CCCNC(=N)N)NC(=O)CNC(=O)[C@H](CC(C)C)NC(=O)[C@H](CO)NC(=O)[C@H](CCCNC(=N)N)NC(=O)[C@H](CC(C)C)NC(=O)CNC(=O)CN)C(=O)N[C@@H](CC(C)C)C(=O)N[C@@H](CCCNC(=N)N)C(=O)N[C@@H](C)C(=O)N[C@@H](Cc1c[nH]c2ccccc12)C(=O)N[C@@H](CCCCN)C(=O)O [S63] (H-GGLRSLGRKILRAWK-OH)
MIC values (Mab ATCC19977 strain): 200 µg/mL (≈ 117 µM)
Antimicrobial peptides against M. abscessus isolates, MIC value [7]: >400 µg/mL
Antimicrobial peptides against M. abscessus isolates, MIC value [8]: >400 µg/mL
Antimicrobial peptides against M. abscessus isolates, MIC value [9]: >400 µg/mL
Viable cells of PBMCs (% viable cells) ([10]; 6.25 µg/mL): 103.67±6.60%
Viable cells of PBMCs (% viable cells) ([10]; 12.5 µg/mL): 101.78±5.46%
Viable cells of PBMCs (% viable cells) ([10]; 25 µg/mL): 88.38±7.60%
Viable cells of PBMCs (% viable cells) ([10]; 50 µg/mL): 93.65±6.02%
Viable cells of PBMCs (% viable cells) ([10]; 100 µg/mL): 66.28±2.71%
Viable cells of PBMCs (% viable cells) ([10]; 200 µg/mL): 71.94±8.32%
Viable cells of PBMCs (% viable cells) ([10]; 400 µg/mL): 48.78±0.59%
MIC values after 3 days [11]: 3.65 to 7.30 µM
